{"source": "patent US20150044305A1", "about": "“[…] NITRIC OXIDE FOR TREATING RESPIRATORY DISEASES” (Advanced Inhalation Therapies (AIT) Ltd., priority 2012, published 2015)", "key": {"[1]": {"system": "highly pathogenic Avian Influenza H7N3", "conditions": "cited from earlier work"}, "[2]": {"system": "S. aureus (Clinical)", "conditions": "200 ppm gNO, saline suspension; cited from earlier work"}, "[3]": {"system": "all microorganisms tested", "conditions": "200 ppm gNO, cited from earlier work"}, "[4]": {"system": "Klebsiella sp.#3", "conditions": "200 ppm gNO, saline suspension; cited from earlier work"}, "[5]": {"system": "Pseudomonas aeruginosa", "conditions": "inhaled, intermittent 30 minute exposures, 160 ppm gNO; cited from earlier work"}, "[6]": {"assay": "Phase I safety study: inspiratory NO2 level during gNO administration", "assay_type": "in vivo, human", "conditions": "inspired gas, 160 ppm gNO", "excerpt": "The levels of gNO, NO2, O2 and methemoglobin were monitored during the administration of gNO. The target gas mixture was 160 ppm gNO with a nitrogen dioxide (NO2) level of less than 5 ppm and an oxygen (O2) level ranging from 21% to 25%. Inspiratory NO, NO2 and O2 levels were continuously monitored by sampling from the mouthpiece sample port located about 6 millimeters from the mouth of the subject with an AeroNOx (Pulmonox, AB, Canada) NO, NO2 and O2 electrochemical analyzer. Delivery safety was determined by the number of occasions that NO2 exceeded 5 ppm, gNO exceeding 10% variation and O2 dropping below 20% during gNO administration. A commercially available noninvasive pulse oximeter (Rad 57, Masimo Corporation, USA) was used to measure saturation levels at the periphery of methemoglobin (SpMet)."}, "[7]": {"system": "S. aureus", "conditions": "cited from earlier work"}, "[8]": {"system": "P. aeruginosa (ATCC)", "conditions": "200 ppm gNO, saline suspension; cited from earlier work"}, "[9]": {"system": "Klebsiella sp.#1", "conditions": "200 ppm gNO, saline suspension; cited from earlier work"}, "[10]": {"system": "S. maltophilia", "conditions": "200 ppm gNO, saline suspension; cited from earlier work"}, "[11]": {"assay": "Phase I safety study: oxygen saturation (SpO2) by pulse oximeter", "assay_type": "in vivo, human", "procedure": "(§1) After obtaining informed consent, treatment was initiated within 5 days of enrollment. Subjects were housed in a hospital ward and received 160 ppm gNO for 30 minutes every four hours (Q4 h), five times a day, for five consecutive days by inhalation. Subjects returned for follow-up evaluations 3, 7 and 21 days after the final gNO administration. Subject safety was determined by monitoring vital signs, methemoglobin levels, lung function, blood chemistry, hematology, prothrombin time, inflammatory cytokine/chemokines levels and endothelial activation.\nAbbreviated physical examination by a registered nurse was carried out each day prior to initiation of treatments on days 1-5. Oxygenation was measured with a pulse oximeter (Rad 57, Masimo Corporation, USA) which was used according to manufacturer's guidelines to measure functional oxygen saturation of arterial hemoglobin (SpO2) and heart rate. These parameters were measured continuously during every gNO administration and for 3.5 hours after the first treatment of the day."}, "[12]": {"system": "five planktonic species of methicillin resistant S. aureous (MRSA)", "conditions": "exposure to 1,600 ppm hours of gNO; cited from earlier work"}, "[13]": {"assay": "Phase I open label safety study in healthy adults: adverse events and vital signs", "assay_type": "in vivo, human", "excerpt": "10 healthy adult volunteer subjects (5 males, 5 females), aged 20 to 62 years, were enrolled in the study after screening their medical history, a physical examination, pulmonary function tests and blood values. Exclusion criteria included individuals less than 19 years of age, pregnant females and unwilling to practice birth control during the study, diagnosed with pulmonary disease, epistaxis, hemoptysis, methemoglobinemia, organ transplant recipient or receiving antibiotic therapy.\nas §1\nSubjects were administered gNO through a modified disposable mouthpiece to maximize mixing. Inspiration was spontaneously initiated by the subject from a conventional intermittent positive pressure breathing respirator (Mark-7, Carefusion, USA) in fixed flow mode delivering 48 liters per minute (LPM). Flows of gas were verified with a calibrated mass flow meter (TSI, USA). Gaseous nitric oxide (gNO, obtained at INOmax, Ikaria, USA) at a concentration of 800 ppm delivered at a flow of 12 LPM was titrated into a distal delivery port on the mouth piece connected to the respirator during inspiratory phase only (pressure switch). The Mark 7 respirator was supplied by an air/oxygen blender (Bird Sentry, Carefusion, USA) set to deliver 26% oxygen.\nCardiovascular status was determined by monitoring heart rate, blood pressure, respiratory rate and temperature. Values were recorded prior to the start of each gNO administration, following a 5 minute rest. During treatments, vital signs (except temperature) were also performed 15 minutes after the start of the treatment and at the end of gNO administration and recorded. After the first treatment each day, vital signs were recorded at every 30 minutes until the start of the second gNO administration of the day."}, "[14]": {"system": "human respiratory syncytial virus (rgRSV30)", "assay": "RSV plaque assay after 30 minutes exposure to 160 ppm gNO", "assay_type": "cell-based", "conditions": "single exposure of 30 minutes to 160 ppm gNO; for reduction of virus viability (factor): vs ambient air", "procedure": "The efficacy of treating viral infection by respiratory syncytial virus by the methods presented herein was tested by exposure for 30 minutes of human respiratory syncytial virus (rgRSV30) to a gas mixture containing 160 ppm nitric oxide, using standard plaque assay as described hereinabove.\nFIGS. 3A-D present the data obtained in the experiment using tissue culture samples harboring human rgRSV30, coupled to a green fluorescent protein, wherein the control experiment the samples were exposed to a ambient air (data not shown), and the tested samples having a starting viral level of 2000 PFU (FIG. 3A), 1000 PFU (FIG. 3B) and 500 PFU (FIG. 3C), were exposed to 160 ppm gNO for 30 minutes, whereas FIG. 3D presents a comparative bar plot comparing the control to test results."}, "[15]": {"conditions": "continuous delivery of 80 ppm gNO; cited from earlier work"}, "[16]": {"conditions": "saline suspension, average over the bacteria of Table 1"}, "[17]": {"conditions": "levels of gNO greater than 120 ppm"}}}
{"smiles": "[N]=O", "note": "[gNO, nitric oxide]", "values": [{"measurement": "viral replication and infectivity", "setting": "[1]", "value": "reduced not only viral replication but also their infectivity"}, {"measurement": "LD100", "setting": "[2]", "value": 4, "unit": "h"}, {"measurement": "Latent Period", "setting": "[2]", "value": 3, "unit": "h"}, {"measurement": "−2.5 Log10 (hours)", "setting": "[2]", "value": 3.7, "unit": "hours"}, {"measurement": "reduction in CFU/mL", "setting": "[3]; every bacteria challenged", "value": "≥ 3", "unit": "log10 CFU/mL"}, {"measurement": "LD100 (hours), Average", "setting": "[3]; [16]", "value": 4.77, "unit": "h"}, {"measurement": "Latent Period (hours), Average", "setting": "[3]; [16]", "value": 2.77, "unit": "h"}, {"measurement": "−2.5 Log10 (hours), Average", "setting": "[3]; [16]", "value": 3.82, "unit": "hours"}, {"measurement": "LD100", "setting": "[4]", "value": 6, "unit": "h"}, {"measurement": "Latent Period", "setting": "[4]", "value": 3, "unit": "h"}, {"measurement": "−2.5 Log10 (hours)", "setting": "[4]", "value": 5.1, "unit": "hours"}, {"measurement": "pulmonary bioburden and leukocyte infiltration", "setting": "[5]", "value": "effective to reduce the pulmonary bioburden and leukocyte infiltration"}, {"measurement": "highest NO2 level recorded during the treatments", "setting": "[6]", "value": 2.8, "unit": "ppm"}, {"measurement": "reduction of colony formation", "setting": "[7]; [17]", "value": "greater than 90%"}, {"measurement": "time required to achieve greater than 90% reduction of colony formation", "setting": "[7]; [17]", "value": "8 to 12", "unit": "h"}, {"measurement": "survival (downward bactericidal trend)", "setting": "[7]; solid media, increasing gNO concentration up to 160 ppm, vs medical air", "value": "5-10%"}, {"measurement": "LD100", "setting": "[8]", "value": 3, "unit": "h"}, {"measurement": "Latent Period", "setting": "[8]", "value": 1, "unit": "h"}, {"measurement": "−2.5 Log10 (hours)", "setting": "[8]", "value": 2.1, "unit": "hours"}, {"measurement": "LD100", "setting": "[9]", "value": 6, "unit": "h"}, {"measurement": "Latent Period", "setting": "[9]", "value": 3, "unit": "h"}, {"measurement": "−2.5 Log10 (hours)", "setting": "[9]", "value": 3.5, "unit": "hours"}, {"measurement": "LD100", "setting": "[10]", "value": 4, "unit": "h"}, {"measurement": "Latent Period", "setting": "[10]", "value": 2, "unit": "h"}, {"measurement": "−2.5 Log10 (hours)", "setting": "[10]", "value": 2.8, "unit": "hours"}, {"measurement": "lowest observed SpO2", "setting": "[11]; 160 ppm gNO 30 minutes, five times a day, five days", "value": 93, "unit": "%"}, {"measurement": "incidences of hypoxemia (less than 85% SpO2)", "setting": "[11]; during or after gNO administration", "value": "No sudden incidences of hypoxemia"}, {"measurement": "SpO2 levels over time between pretreatment and post treatment", "setting": "[11]; not significant statistically nor clinically", "value": "decreased slightly"}, {"measurement": "population of planktonic MRSA strains", "setting": "[12]", "value": "A reduction in the population of all five MRSA planktonic strains was observed"}, {"measurement": "minor adverse events reported", "setting": "[13]; 160 ppm gNO 30 minutes, five times a day, five days, 10 healthy adults", "value": "Three minor adverse events were reported"}, {"measurement": "tolerability and adverse events", "setting": "[13]; 160 ppm gNO 30 minutes, five times a day, five days, 10 healthy adults, 250 administrations", "value": "well tolerated and no significant adverse events were observed"}, {"measurement": "vital signs", "setting": "[13]; during and after 160 ppm gNO administration", "value": "remained within normal limits"}, {"measurement": "blood pressure", "setting": "[13]; during or after 160 ppm gNO administration", "value": "no drop in blood pressure"}, {"measurement": "viral viability", "setting": "[14]; starting 500 PFU", "value": "substantially nullified"}, {"measurement": "reduction of virus viability (factor)", "setting": "[14]; starting 1000 PFU", "value": "~10"}, {"measurement": "reduction of virus viability (factor)", "setting": "[14]; starting 2000 PFU", "value": "~10"}, {"measurement": "subjects with SpMet exceeding 7%", "setting": "[15]", "value": 35, "unit": "%"}]}
